From EP4095134A1, “POLYCYCLIC COMPOUNDS FOR THE TREATMENT OF NEUROLOGICAL INDICATIONS” (UCL Business Ltd, priority 2021, dated 2022)
Like-named read-outs stand apart in the source and are kept apart here.

Columns and labels:
P2Y1 receptor = molecular target: T1, P2Y1 receptor (Homo sapiens, UniProt P47900); assay: P2Y1 IP1 accumulation HTRF assay, antagonism of agonist MRS2365 in stably transfected cells; format: cell-based; details: Example 2 table; as for example 1
T1 construct: expressed in transfected cells
Method in brief: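 HTRF IP1 accumulation in stably P2Y1-overexpressing cells, plated the day before. Compounds pre-incubated 1 hour (10-point semi-log curve from 10µM, 0.1% DMSO), then 5nM MRS2365 added for 60 minutes, both at 37°C / 5% CO2. IP1 interpolated from standard curve; IC50 from N ≥ 4 runs.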

[1] = CNS penetration, single compound oral or intravenous administration, brain and plasma by LC-MS/MS; format: in vivo, C57B16/J mice; details: mouse
Description: To assess pharmacokinetic properties and CNS penetration of compounds, compounds were administered to mice via the oral and intravenous routes. For oral dosing, compound solutions were prepared in a suitable vehicle (such as 10% PEG400/5% Kolliphor EL/85% H2O) at a concentration of 0.5mg/mL. Compounds were dosed via oral gavage at a dosing volume of 10mL/kg to C57B16/J mice, for a final dose of 5mg/kg. Animals were culled at 8 timepoints to 24 hours, and plasma and brain samples collected for bioanalysis.
For intravenous dosing, compound solutions were prepared in a suitable vehicle (such as 10% DMSO/90%HPCD (20%)) at a concentration of 0.2mg/mL. Compound was administered via the intravenous route in a dosing volume of 5mL/kg, for a final dose of 1mg/kg. Animals were culled at various timepoints out to 24 hours, and plasma and brain collected for bioanalysis.
For bioanalysis, compound was prepared in DMSO at a final concentration of 1mg/mL. Analytical standards were prepared from the initial 1mg/mL stock solution of compound, with a 12-point standard curve range from 0.5ng/mL to 2000ng/mL, with independent quality control tests from 1ng/mL to 1000ng/mL run to validate the standards. All standards and QC samples were matrix matched to eliminate possible suppression. Plasma samples were prepared with a 1:10 dilution in plasma. Brain tissue samples were homogenized in 0.1M phosphate buffer solution at a ratio of 1:4, and used without further dilution. Dose solutions were diluted in a control matrix to a relative concentration that fell on the standard curve. Cold acetonitrile containing internal standard was added to all samples, standards, dose samples and QC samples; samples were then centrifuged for 30 minutes at 4000rpm. After centrifugation, supernatant was transferred to a new 96-well plate, diluted with an equal volume of water and mixed thoroughly before LC-MS analysis.
Supernatents were analysed by LC-MS/MS. From the analysis data a response ratio was obtained using the formula Response Ratio = Test Peak Area/Internal Standard Peak Area. From the standard curve, the test peak area was converted to concentration of test compound.
(§1) To establish CNS penetration, the ratio of the concentration of each compound in the […] was assessed.

[2] = CNS penetration, intravenous cassette dosing, brain and plasma by LC-MS/MS; format: in vivo, C57B16/J mice; details: mouse, iv (0.4 mg/kg), t = 2 hr
Description: To assess penetration of compounds into the mouse central nervous system, intravenous pharmacokinetic studies were undertaken in C57B16/J mice. In each study, up to five compounds were formulated in a vehicle comprising DMSO, Kolliphor EL and HPCD (20% w/v) to a final dose for each compound of 0.4mg/kg. Compounds were then combined into a single dosing solution and administered together via the intravenous route into 24 mice. Total compound dose administered to each mouse was 2mg/kg. Mice were culled at 0.08, 0.25, 0.5, 1, 2, 4, 8 and 24 hours post dosing, and brain and plasma collected for bioanalysis.
For bioanalysis, compounds were prepared in DMSO and aliquoted together to ensure a final concentration of 1mg/mL per compound in DMSO. Analytical standards were prepared from the initial 1mg/mL stock solution of compound, with a 12-point standard curve range from 0.5ng/mL to 2000ng/mL, with independent quality control tests from 1ng/mL to 1000ng/mL run to validate the standards. All standards and QC samples were matrix matched to eliminate possible suppression. Plasma samples were prepared with a 1:10 dilution in plasma. […]
Supernatents were analysed by LC-MS/MS. […]
as §1

[3] = brain, 1 mg/kg, iv, single compound, AUC0-24h, read-out: CNS penetration: total brain to plasma ratio AUC0-24h iv
[4] = brain, 1 mg/kg, iv, single compound, t = 2 h, read-out: CNS penetration: total brain to plasma ratio @ t =2 h iv
[5] = brain, po, p.o (5 mg/kg), AUC 0-24 h, read-out: CNS penetration: total brain to plasma ratio AUC 0-24 h

T1 sequence (P47900 whole entry): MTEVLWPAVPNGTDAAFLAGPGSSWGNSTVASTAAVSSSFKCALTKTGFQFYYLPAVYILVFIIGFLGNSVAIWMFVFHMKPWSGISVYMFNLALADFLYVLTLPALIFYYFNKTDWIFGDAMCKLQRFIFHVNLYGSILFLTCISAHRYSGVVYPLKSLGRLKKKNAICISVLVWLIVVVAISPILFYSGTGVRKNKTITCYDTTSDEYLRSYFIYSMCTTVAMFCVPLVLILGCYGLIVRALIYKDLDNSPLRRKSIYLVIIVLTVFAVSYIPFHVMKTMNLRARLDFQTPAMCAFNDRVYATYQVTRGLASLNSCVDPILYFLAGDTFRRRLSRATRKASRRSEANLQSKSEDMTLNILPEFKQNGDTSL

Row | SMILES | IC50 (P2Y1 receptor) | Kp at 24 h [1, 5] | also measured
1 | O=C(Nc1ccc(OC(F)(F)F)cc1)Nc1cccnc1Oc1ccccc1C1(C(F)(F)F)CCO1 (stereo not drawn) | 84 nM |  | Kp ([1]; C57B16/J, brain and plasma, 1 mg/kg, iv, single compound, AUC0-24h, read-out: CNS penetration: total brain to plasma ratio AUC0-24h iv): 2.1; Kp at 2 h ([1]; C57B16/J, brain and plasma, 1 mg/kg, iv, single compound, t = 2 h, read-out: CNS penetration: total brain to plasma ratio @ t =2 h iv): 1.7; Kp ([1]; C57B16/J, brain and plasma, oral, p.o (5 mg/kg), AUC 0-24 h, read-out: CNS penetration: total brain to plasma ratio AUC 0-24 h): 1.9
2 | CN1CC[C@@]1(c1ccccc1Oc1ncccc1NC(=O)Nc1ccc(OC(F)(F)F)cc1)C(F)(F)F (single isomer, unassigned) | 39 nM |  | Kp at 2 h ([1]; C57B16/J, brain and plasma, po, p.o (5 mg/kg), value at t = 2h, read-out: CNS penetration: total brain to plasma ratio po (value at t = 2h)): 2.4
3 | Cc1ccc(NC(=O)Nc2ccc(OC(F)(F)F)cc2)c(Oc2ccccc2C(C)(C)C)n1 [RS2, 1-(2-(2-(tert-butyl)phenoxy)-6-methylpyridin-3-yl)-3-(4-(trifluoromethoxy)phenyl)urea] |  |  | CNS penetration: total brain to plasma ratio [2]: BLLQ^d iv
4 | CC1(C)CN(c2ccccc2NC(=O)Nc2ccc(OC(F)(F)F)cc2)c2c(O)ccc(-c3ccc(Cl)cc3)c21 [RS 1, 1-(2-(4-(4-chlorophenyl)-7-hydroxy-3,3-dimethylindolin-1-yl)phenyl)-3-(4-(trifluoromethoxy)phenyl)urea, reference compound] | 33 nM |  | CNS penetration: total brain to plasma ratio [2]: BLLQ^d iv
5 | O=C(Nc1ccc(OC(F)(F)F)cc1)Nc1cccnc1Oc1ccccc1[C@@]1(C(F)(F)F)CCO1 [drawing 315] | 68 nM | 2.6 | Kp at 24 h [1, 3]: 3.3; Kp at 2 h [1, 4]: 2.8
6 | O=C(Nc1ccc(OC(F)(F)F)cc1)Nc1cccnc1Oc1ccccc1[C@]1(C(F)(F)F)CCO1 [drawing 316] | 119 nM | 2.4 | Kp at 24 h [1, 3]: 3.1; Kp at 2 h [1, 4]: 3.2
7 | Cc1ccc(NC(=O)Nc2ccc(OC(F)(F)F)cc2F)c(Oc2ccccc2[C@@]2(C(F)(F)F)CCO2)n1 [drawing 319] | 34 nM | 1.7 | 
8 | Cc1ccc(NC(=O)Nc2ccc(Cl)cc2F)c(Oc2ccccc2[C@@]2(C(F)(F)F)CCO2)n1 [drawing 320] | 41 nM | 1.3 | 
